Reference: US10179769B2, “Histone demethylase inhibitors” (CELGENE QUANTICEL RESEARCH, INC., priority 2012, dated 2019)

Target: JMJD2C (Homo sapiens (Human), UniProt Q9H3R0)
Test: JMJD2C TR-FRET enzyme inhibition assay
Type: biochemical
Details: H3K9me3-biotin peptide
Excerpt: This assay determines the ability of a test compound to inhibit Jarid1A, Jarid1B, and JMJD2C demethylase activity. Baculovirus expressed Jarid1A (GenBank Accession #NM_001042603, AA1-1090) was purchased from BPS Bioscience (Cat#50110). Baculovirus expressed Jarid1B (GenBank Accession #NM_006618, AA 2-751) was purchased from BPS Bioscience (Cat #50121) or custom made by MolecularThroughput. Baculovirus-expressed JMJD2C (GenBank Accession #BC143571, AA 2-372) was purchased from BPS Bioscience (Cat#50105).
The ability of test compounds to inhibit the activity of JMJD2C was determined in 384-well plate format under the following reaction conditions: 0.3 nM JMJD2C, 300 nM H3K9me3-biotin labeled peptide (Anaspec cat #64360), 2 μM alpha-ketoglutaric acid in assay buffer of 50 mM HEPES, pH7.3, 0.005% Brij35, 0.5 mM TCEP, 0.2 mg/ml BSA, 50 μM sodium L-ascorbate, and 2 μM ammonium iron(II) sulfate. Reaction product was determined quantitatively by TR-FRET after the addition of detection reagent Phycolink Streptavidin-allophycocyanin (Prozyme) and Europium-anti-di-methylated histone H3 lysine 9 (H3K9me2) antibody (PerkinElmer) in the presence of 5 mM EDTA in LANCE detection buffer (PerkinElmer) at a final concentration of 50 nM and 1 nM, respectively.
The reaction mixture was incubated at room temperature for 30 min, and terminated by the addition of 6 μl of 5 mM EDTA in LANCE detection buffer containing 100 nM Phycolink Streptavidin-allophycocyanin and 2 nM Europium-anti-H3K9me2 antibody. Plates were read by EnVisionMultilabel Reader in TR-FRET mode (excitation at 320 nm, emission at 615 nm and 665 nm) after 1 hr incubation at rt. A ratio was calculated (665/615) for each well and fitted to determine inhibition constant (IC50).

Sequence of JMJD2C (Q9H3R0 2-372): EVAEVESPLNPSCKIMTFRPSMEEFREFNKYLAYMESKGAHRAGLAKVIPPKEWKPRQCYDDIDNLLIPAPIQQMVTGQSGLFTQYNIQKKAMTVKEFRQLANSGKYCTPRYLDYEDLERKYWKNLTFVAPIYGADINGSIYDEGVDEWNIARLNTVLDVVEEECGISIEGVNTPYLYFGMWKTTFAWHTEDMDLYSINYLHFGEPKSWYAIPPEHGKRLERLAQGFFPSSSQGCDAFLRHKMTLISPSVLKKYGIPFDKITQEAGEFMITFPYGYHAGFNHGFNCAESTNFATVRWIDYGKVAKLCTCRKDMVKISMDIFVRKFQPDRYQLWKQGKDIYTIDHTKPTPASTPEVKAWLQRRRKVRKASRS

Row | Substance | IC50 [nM]
1 | 3-{[(6-chloro-1,2,3,4-tetrahydronaphthalen- 1-yl)methyl]-amino}pyridine-4- carboxylic acid [Example 68] | 100 to 1000
2 | 3-{[(6-chloro-1-hydroxy-1,2,3,4- tetrahydronaphthalen-1-yl)methyl]amino} pyridine-4-carboxylic acid [Example 67] | 100 to 1000
3 | 3-{[(7-fluoro-3,4-dihydro-2H-chromen-4- yl)methyl]-amino}pyridine-4-carboxylic acid [Example 65] | < 100
